Several values for one entry are separate records, joined by “and”; a condition that tells them apart may be missing. Equal values may be shown once.
How the values were obtained:
[1] = system: healthy adults; experiment: whole-organ biodistribution and residence times by whole-body PET; type: in vivo, human; conditions: for Mean Percent Administered Dose, Brain / Mean Percent Administered Dose, GI Stomach Wall / Mean Percent Administered Dose, Heart Wall / Mean Percent Administered Dose, Kidneys / Mean Percent Administered Dose, Liver / Mean Percent Administered Dose, Marrow (lumbar) / Mean Percent Administered Dose, Salivary / Mean Percent Administered Dose, Spleen / Mean Percent Administered Dose, Thyroid / Mean Percent Administered Dose, Urinary Bladder / Mean Percent Administered Dose, Whole Body: N = 12, decay corrected
Description: Whole-body PET imaging from head to mid thigh was performed at protocol-specified time-windows.
The attenuation corrected transverse image data slice planes were combined into a single three-dimensional image matrix for each subject and each time point using custom software. These images were then divided into 6 image sets (“anterior”, “posterior”, “salivary”, “thyroid”, “source”, and “full”) of combined coronal plane image data for each subject at each time point, grouping organs with similar anterior to posterior depths. This was done to optimize the ROI creation, and minimize background contribution to the organs contained in each combined coronal plane image. The “anterior” images contained stomach wall, heart wall, and urinary bladder. The “posterior” images contained kidneys, lumbar spine, and spleen (when visible). The “salivary” images contained the salivary glands (parotid and submandibular). The “thyroid” images contained the thyroid. The “full” images combined all of the coronal image planes that contained subject image data and was used for quantification of the brain and liver. The “source” images contained the calibration source.
Absolute radioactivity was determined by normalizing ROI sums by a calibration factor derived from the calibration source. Region counts were also adjusted for activity containing underlying and overlying tissue that was not part of the organ or tissue being quantified by utilization of background regions of interest. Total body region counts were also corrected for off body background counts. Appropriate normalization of region sizes for organ and adjacent regions were made. Unobstructed regions of organs with significant overlap from other activity containing organs were also employed where necessary. In order to estimate the activity in the lower legs (which were not imaged), a region of interest on the upper thigh was utilized. Activities were also normalized where necessary to account for 100% of the injected activity, and to insure conservative (slight over-estimates) determination of absorbed dose.
Kinetic data for brain, heart wall, kidneys, liver, red marrow (lumbar spine regions were utilized), salivary glands, spleen, stomach wall, thyroid, and urinary bladder for the subjects in the study were determined using image quantification methodology. Absolute activity was converted to fractional dose by dividing by the total activity administered. Organ and tissue data were fit using non-linear least-squares regression with sums of exponentials of the form shown in Equation 1, where f and λ are the model parameters that are determined in the fitting process, Fij(t) is the fraction of the total injected activity, t is the time post injection, i is the i^th ROI, j is the j^th subject, and k is the k^th exponential term. Between one and four exponential terms were employed, as appropriate.
The regression was performed using custom software that determines initial parameter values based on the temporal variation of the kinetic data, and the use of pre-tabulated estimates for various time activity scenarios as selected by the user. […] Remainder of Body residence times were determined by subtraction of appropriate organ residence times from whole body residence times. Urinary bladder residence times were determined using the parameters determined by fitting the whole body activity data with a urinary bladder model as implemented in the OLINDA/EXM software with 3.5 hour bladder voiding interval. Red marrow residence time was determined based on a region of interest drawn on a portion of the lumbar spine. The lumbar spine was assumed to contain 16.1% (International Commission on Radiological Protection (ICRP) Publication 23, Report of the Task Group on Reference Man. Pergamon Press. 1975, page 125) of the total red marrow.

[2] = syringe adsorption of imaging agent 1; type: physicochemical; conditions: three hours, ambient temperature
Description: The two sets of filled syringes were maintained at ambient temperature and humidity for a period of three hours, at which time the contents were injected into a clean 5 cc glass vial; a consistent volume of imaging agent 1 (0.1 mL) remained in the hub of each syringe. The total radioactivity content of both the vial and syringe were measured, decay corrected and the percent retention calculated. The difference in percent retained activity is statistically significant at the 95% confidence level (i.e. Prob>|t| 0.0005).

[3] = N = 12, Void Interval = 3.5 hours
[4] = whole body coronal images, representative subject

## CC(C)(C)n1ncc(OCc2ccc(COCC[18F])cc2)c(Cl)c1=O [imaging agent 1, 2-t-butyl-4-chloro-5-[4-(2-(^18F)fluoroethoxymethyl)-benzyloxy]-2H-pyridazin-3-1]
[1]; 0.17 hr post-dose
  Mean Percent Administered Dose, Brain: 8.3%
  Mean Percent Administered Dose, GI Stomach Wall: 2.5%
  Mean Percent Administered Dose, Heart Wall: 3.1%
  Mean Percent Administered Dose, Kidneys: 9.4%
  Mean Percent Administered Dose, Liver: 19.1%
  Mean Percent Administered Dose, Marrow (lumbar): 0.3%
  Mean Percent Administered Dose, Salivary: 0.6%
  Mean Percent Administered Dose, Spleen: 0.9%
  Mean Percent Administered Dose, Thyroid: 0.1%
  Mean Percent Administered Dose, Urinary Bladder: 0.3%
  Mean Percent Administered Dose, Whole Body: 100.0%
[1]; 0.50 hr post-dose
  Mean Percent Administered Dose, Brain: 7.9%
  Mean Percent Administered Dose, GI Stomach Wall: 2.4%
  Mean Percent Administered Dose, Heart Wall: 3.2%
  Mean Percent Administered Dose, Kidneys: 6.5%
  Mean Percent Administered Dose, Liver: 18.0%
  Mean Percent Administered Dose, Marrow (lumbar): 0.3%
  Mean Percent Administered Dose, Salivary: 0.7%
  Mean Percent Administered Dose, Spleen: 0.6%
  Mean Percent Administered Dose, Thyroid: 0.1%
  Mean Percent Administered Dose, Urinary Bladder: 0.2%
  Mean Percent Administered Dose, Whole Body: 99.8%
[1]; 0.83 hr post-dose
  Mean Percent Administered Dose, Brain: 7.3%
  Mean Percent Administered Dose, GI Stomach Wall: 2.2%
  Mean Percent Administered Dose, Heart Wall: 3.4%
  Mean Percent Administered Dose, Kidneys: 4.9%
  Mean Percent Administered Dose, Liver: 16.4%
  Mean Percent Administered Dose, Marrow (lumbar): 0.3%
  Mean Percent Administered Dose, Salivary: 0.6%
  Mean Percent Administered Dose, Spleen: 0.4%
  Mean Percent Administered Dose, Thyroid: 0.1%
  Mean Percent Administered Dose, Urinary Bladder: 0.3%
  Mean Percent Administered Dose, Whole Body: 99.7%
[1]; 2.0 hr post-dose
  Mean Percent Administered Dose, Brain: 4.7%
  Mean Percent Administered Dose, GI Stomach Wall: 0.7%
  Mean Percent Administered Dose, Heart Wall: 2.4%
  Mean Percent Administered Dose, Kidneys: 1.6%
  Mean Percent Administered Dose, Liver: 7.5%
  Mean Percent Administered Dose, Salivary: 0.5%
  Mean Percent Administered Dose, Spleen: 0.3%
  Mean Percent Administered Dose, Thyroid: 0.1%
  Mean Percent Administered Dose, Urinary Bladder: 0.9%
  Mean Percent Administered Dose, Whole Body: 98.2%
[1]; 2.5 hr post-dose
  Mean Percent Administered Dose, Brain: 4.1%
  Mean Percent Administered Dose, GI Stomach Wall: 0.7%
  Mean Percent Administered Dose, Heart Wall: 2.5%
  Mean Percent Administered Dose, Kidneys: 1.6%
  Mean Percent Administered Dose, Liver: 7.0%
  Mean Percent Administered Dose, Salivary: 0.5%
  Mean Percent Administered Dose, Spleen: 0.3%
  Mean Percent Administered Dose, Thyroid: 0.1%
  Mean Percent Administered Dose, Urinary Bladder: 1.1%
  Mean Percent Administered Dose, Whole Body: 98.1%
[1]; 3.83 hr post-dose
  Mean Percent Administered Dose, Brain: 3.2%
  Mean Percent Administered Dose, GI Stomach Wall: 0.6%
  Mean Percent Administered Dose, Heart Wall: 2.1%
  Mean Percent Administered Dose, Kidneys: 1.2%
  Mean Percent Administered Dose, Liver: 4.5%
  Mean Percent Administered Dose, Salivary: 0.4%
  Mean Percent Administered Dose, Spleen: 0.3%
  Mean Percent Administered Dose, Thyroid: 0.1%
  Mean Percent Administered Dose, Urinary Bladder: 1.4%
  Mean Percent Administered Dose, Whole Body: 96.8%
[1]; 4.5 hr post-dose
  Mean Percent Administered Dose, Brain: 2.9%
  Mean Percent Administered Dose, GI Stomach Wall: 0.6%
  Mean Percent Administered Dose, Heart Wall: 2.1%
  Mean Percent Administered Dose, Kidneys: 1.1%
  Mean Percent Administered Dose, Liver: 4.7%
  Mean Percent Administered Dose, Salivary: 0.4%
  Mean Percent Administered Dose, Thyroid: 0.1%
  Mean Percent Administered Dose, Urinary Bladder: 1.7%
  Mean Percent Administered Dose, Whole Body: 96.9%
[1]; N = 12
  mean peak uptake, brain: approximately 8.3 % of the injected activity
  mean peak uptake, kidneys: approximately 9.4 % of the injected activity
  mean peak uptake, liver: approximately 19.1 % of the injected activity
[1]; [3]
  Residence Time, Mean, Brain: 0.14 h and 0.138 h
  Residence Time, Mean, GI Stomach Wall: 0.033 h
  Residence Time, Mean, Heart Wall: 0.0728 h
  Residence Time, Mean, Kidneys: 0.0952 h
  Residence Time, Mean, Liver: 0.28 h and 0.277 h
  Residence Time, Mean, Red Marrow: 0.0886 h
  Residence Time, Mean, Remainder of Body: 1.8 h and 1.84 h
  Residence Time, Mean, Salivary: 0.0148 h
  Residence Time, Mean, Spleen: 0.0101 h
  Residence Time, Mean, Thyroid: 0.00331 h
  Residence Time, Mean, Urinary Bladder: 0.0265 h
[1]; [4]
  high and sustained heart retention of ^18F, through time after injection: approximately 5 hours
  time of liver clearing after injection: approximately 2 hours
[2]; B&D (Becton & Dickinson) three-component syringe
  Retained Activity in syringe: 35.2% and 38.9% and 32.4%
[2]; HSW (Henke Sass Wolf) two-component syringe
  Retained Activity in syringe: 11.3% and 7.0% and 5.1%

Reference: patent publication US10842892B2, “Methods and apparatus for synthesizing imaging agents, and intermediates thereof” (Lantheus Medical Imaging, Inc., priority 2010, dated 2020)
